{
  "source": "patent US20100113392A1",
  "about": "“METHODS OF USING SAHA AND BORTEZOMIB FOR TREATING MULTIPLE MYELOMA” (priority 2006, published 2010)",
  "key": {"[1]": {"system": "relapsed and refractory multiple myeloma", "test": "Phase I clinical trial of oral Vorinostat plus Bortezomib: response", "type": "in vivo, human", "conditions": "dexamethasone 20 mg p.o. days 4-8 added to Vorinostat and Bortezomib for nonresponders"}, "[2]": {"test": "Pharmacokinetics of Vorinostat in the Phase I trial"}, "[3]": {"test": "Phase I clinical trial of oral Vorinostat plus Bortezomib: MTD, safety and tolerability", "type": "in vivo, human", "conditions": "Vorinostat 500 mg daily with Bortezomib […]^2, cycle 1, 2 patients", "procedure": "This was a multicenter, open label, escalating dose, Phase I study of Vorinostat in combination with intravenous Bortezomib injection in patients eligible for Bortezomib therapy. […] Patients on Dose Levels 1-5 were administered Bortezomib as an intravenous (IV) bolus on Days 1, 4, 8 and 11.\nAt the beginning of the study, five 3-patient cohorts were evaluated at various dose levels as outlined in the Table 1 and Table 2 below.\nIn the absence of treatment delays due to adverse events, treatment continued for 8-cycles or until one of the following criteria applied: • a) disease progression • b) intercurrent illness that prevents further administration of treatment • c) unacceptable adverse events • d) patient decides to withdraw from the study • e) general or specific changes in the patient's condition render the patient unacceptable for further treatment in the judgment of the investigator. • f) if the patient achieves a complete remission, they continue on the study for a total of 8 cycles.\nFurther studies enrolled up to 40 adult patients with multiple myeloma, relapsed or refractory disease. One treatment cycle was 3 weeks or 21 days. […] Although the current FDA approved Bortezomib dose for relapsed myeloma patients to be […], if toxicity occurred, the subsequent dose of Bortezomib was going to be decreased to 0.7 mg/m^2. […] Other Bortezomib dose to be tested was 1.3 mg/m^2."}},
  "data": [
    {"compound": "9-fluoro-1′-beta,17,21-trihydroxy-16-alpha-methylpregna-1,4-diene-3,20-dione [dexamethasone]", "values": [
      {"measurement": "effect of added dexamethasone on response", "setting": "[1]", "result": "no upgrade in response"}
    ]},
    {"compound": "O=C(CCCCCCC(=O)Nc1ccccc1)NO", "note": "[Vorinostat, N-Hydroxy-N′-phenyl octanediamide]", "values": [
      {"measurement": "effect of administration after Bortezomib on pharmacokinetics", "setting": "[2]; Vorinostat given after Bortezomib", "result": "did not affect pharmacokinetics"},
      {"measurement": "dose dependence of pharmacokinetics", "setting": "[2]; single oral dose, 100-500 mg", "result": "linear"},
      {"measurement": "toxicities defining the MTD in cycle 1", "setting": "[3]", "result": "grade 4 prolonged QT interval and grade 4 fatigue"}
    ]}
  ]
}
